Drawing on US10072001B2, “Tank-binding kinase inhibitor compounds” (Gilead Sciences, Inc., priority 2014, dated 2018), this text covers IC50 for 12 molecules.

Some results are limits rather than exact numbers.

Experiment [1] concerns the target IKKε (Homo sapiens (Human), UniProt Q14164). The experiment is described as follows: TR-FRET kinase assay, IKKε. Type of experiment: biochemical. The note with it: full length recombinant IKKε 0.3 nM, 2x Km ATP, 1 μM peptide, 240 min at 25° C.; geometric mean of minimum four determinations. An excerpt: Biological Assay for TBK1 and IKKs:
A general note: Time-resolved FRET reads energy transfer from a long-lived donor to a nearby acceptor.

Experiment [2] addresses TBK1 (Homo sapiens (Human), UniProt Q9UHD2). Kind of experiment: TR-FRET kinase assay, TBK1. The conditions noted are these: read-out: TBK1-IC50; full length recombinant TBK1 2.5 nM, 2x Km ATP, 1 μM peptide, 240 min at 25° C.; geometric mean of minimum four determinations.

IKKε, sequence (Q14164 whole entry): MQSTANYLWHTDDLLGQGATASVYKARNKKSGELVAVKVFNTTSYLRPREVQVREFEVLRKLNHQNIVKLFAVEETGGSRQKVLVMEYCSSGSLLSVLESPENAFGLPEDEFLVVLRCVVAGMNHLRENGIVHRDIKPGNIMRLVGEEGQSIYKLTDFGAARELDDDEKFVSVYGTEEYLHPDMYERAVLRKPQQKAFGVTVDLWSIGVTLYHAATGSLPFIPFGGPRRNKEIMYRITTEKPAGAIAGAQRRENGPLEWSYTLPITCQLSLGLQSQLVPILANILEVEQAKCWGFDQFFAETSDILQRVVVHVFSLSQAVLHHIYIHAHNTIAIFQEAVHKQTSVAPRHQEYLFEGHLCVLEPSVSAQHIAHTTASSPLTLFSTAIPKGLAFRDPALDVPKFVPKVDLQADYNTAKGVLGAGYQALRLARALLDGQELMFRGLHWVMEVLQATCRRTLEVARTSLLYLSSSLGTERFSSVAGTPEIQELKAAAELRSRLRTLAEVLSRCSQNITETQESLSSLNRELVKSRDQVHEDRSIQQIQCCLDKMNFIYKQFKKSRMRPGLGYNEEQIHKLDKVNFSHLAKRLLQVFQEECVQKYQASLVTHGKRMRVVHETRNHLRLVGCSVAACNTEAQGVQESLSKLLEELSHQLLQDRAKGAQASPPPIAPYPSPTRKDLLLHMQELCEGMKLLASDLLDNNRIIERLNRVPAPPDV
TBK1, sequence (Q9UHD2 whole entry): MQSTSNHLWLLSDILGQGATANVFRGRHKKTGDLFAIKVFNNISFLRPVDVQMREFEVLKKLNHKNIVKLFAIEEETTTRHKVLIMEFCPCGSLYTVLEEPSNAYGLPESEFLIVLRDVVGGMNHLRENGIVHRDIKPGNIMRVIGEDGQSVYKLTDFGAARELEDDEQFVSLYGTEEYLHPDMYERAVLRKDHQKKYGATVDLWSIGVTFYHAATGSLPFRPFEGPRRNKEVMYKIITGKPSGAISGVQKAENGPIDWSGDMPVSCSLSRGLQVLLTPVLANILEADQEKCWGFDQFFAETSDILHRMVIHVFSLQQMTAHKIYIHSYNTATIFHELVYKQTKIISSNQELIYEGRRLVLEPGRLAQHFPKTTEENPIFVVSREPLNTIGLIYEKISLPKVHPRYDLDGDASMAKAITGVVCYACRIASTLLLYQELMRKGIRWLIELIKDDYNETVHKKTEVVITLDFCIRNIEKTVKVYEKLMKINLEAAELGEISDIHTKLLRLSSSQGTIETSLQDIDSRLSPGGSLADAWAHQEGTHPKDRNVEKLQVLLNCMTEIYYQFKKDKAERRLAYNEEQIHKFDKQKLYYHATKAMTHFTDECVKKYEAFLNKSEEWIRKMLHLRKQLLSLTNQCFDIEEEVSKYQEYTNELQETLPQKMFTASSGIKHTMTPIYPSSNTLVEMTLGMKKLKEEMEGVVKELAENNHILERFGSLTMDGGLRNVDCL

Take `N#CCC(=O)N1CC[C@@H](Oc2ccc(-c3ncnc4[nH]c(-c5ccc(N6CCOCC6)cc5)cc34)cc2C#N)C1` [Example 107, (R)-2-((1-(2-cyanoacetyl)pyrrolidin-3-yl)oxy)-5-(6-(4-morpholinophenyl)-7H-pyrrolo[2,3-d]pyrimidin-4-yl)benzonitrile]: the figures for the IC50 in experiment [1] and in experiment [2] were 11.7 nM and 2.26 nM, respectively.
For `COc1ccc(-c2cc3c(-c4ccc(OC5CCN(C(=O)CO)CC5)c(C#N)c4)ncnc3[nH]2)c(C)c1` [Example 131, 2-((1-(2-hydroxyacetyl)piperidin-4-yl)oxy)-5-(6-(4-methoxy-2-methylphenyl)-7H-pyrrolo[2,3-d]pyrimidin-4-yl)benzonitrile] the same measures were 12.4 nM and 5.68 nM.
Regarding `N#Cc1cc(-c2ncnc3[nH]c(-c4ccc(N5CCOCC5)cc4)cc23)ccc1OC1CCOCC1` [Example 101, 5-(6-(4-morpholinophenyl)-7H-pyrrolo[2,3-d]pyrimidin-4-yl)-2-((tetrahydro-2H-pyran-4-yl)oxy)benzonitrile], the IC50 (as a rule, the concentration that gives 50% inhibition) in experiment [1] is 8.06 nM; in experiment [2] it was 1.72 nM.
For `N#Cc1cc(-c2ccnc3[nH]c(-c4ccc(N5CCOCC5)cc4)nc23)ccc1OCC1CC1` [Example 301, 2-(cyclopropylmethoxy)-5-(2-(4-morpholinophenyl)-3H-imidazo[4,5-b]pyridin-7-yl)benzonitrile] the same measures were over 1000 nM and 43.5 nM.
Regarding `N#Cc1cc(-c2ncnc3[nH]c(-c4cccc(N5CCOCC5)c4)cc23)ccc1CN1CCOCC1` [Example 113, 2-(morpholinomethyl)-5-(6-(3-morpholinophenyl)-7H-pyrrolo[2,3-d]pyrimidin-4-yl)benzonitrile], the figures for the IC50 in experiment [1] and in experiment [2] were 1000 nM and 69.1 nM, respectively.
For `N#CCC(=O)N1CC[C@@H](Oc2ccc(-c3ccnc4[nH]c(-c5ccc(N6CCOCC6)cc5)cc34)cc2C#N)C1` [Example 16, (R)-2-((1-(2-cyanoacetyl)pyrrolidin-3-yl)oxy)-5-(2-(4-morpholinophenyl)-1H-pyrrolo[2,3-b]pyridin-4-yl)benzonitrile] the same measures were 13.8 nM and 4.32 nM.
For `N#Cc1cc(-c2ccnc3[nH]c(-c4ccc(N5CCN(C6COC6)CC5)cc4)cc23)ccc1OC1CCOCC1` [Example 85, 5-(2-(4-(4-(oxetan-3-yl)piperazin-1-yl)phenyl)-1H-pyrrolo[2,3-b]pyridin-4-yl)-2-((tetrahydro-2H-pyran-4-yl)oxy)benzonitrile] the same measures were 3.5 nM and 1.31 nM.
For `C[C@H](O)C(=O)N1CCC(Oc2ccc(-c3ncnc4[nH]c(-c5ccc(N6CCOCC6)cc5)nc34)cc2C#N)CC1` [Example 234, (S)-2-((1-(2-hydroxypropanoyl)piperidin-4-yl)oxy)-5-(8-(4-morpholinophenyl)-9H-purin-6-yl)benzonitrile] the same measures were 8.64 nM and 2.34 nM.
With `Cc1noc(C)c1-c1cc2c(-c3ccc(OC4CCOCC4)c(C#N)c3)ccnc2[nH]1` [Example 216, 5-(2-(3,5-dimethylisoxazol-4-yl)-1H-pyrrolo[2,3-b]pyridin-4-yl)-2-((tetrahydro-2H-pyran-4-yl)oxy)benzonitrile], the IC50 turned out to be 121 nM in experiment [1] and 67.6 nM in experiment [2].
For `CS(=O)(=O)c1ccc(-c2ccnc3[nH]c(-c4ccc(N5CCOCC5)cc4)cc23)cc1C#N` [Example 192, 2-(methylsulfonyl)-5-(2-(4-morpholinophenyl)-1H-pyrrolo[2,3-b]pyridin-4-yl)benzonitrile] the same measures were 1000 nM and 275 nM.
For `N#Cc1cc(-c2ccnc3[nH]c(-c4cc5ccccc5[nH]4)cc23)ccc1OC1CCOCC1` [Example 38] the same measures were 76.8 nM and 32.5 nM.
For `CN1CCN(c2ccc(-c3cc4c(-c5ccc(OC6CCOCC6)c(C#N)c5)ncnc4[nH]3)cc2)CC1` [Example 219, 5-(6-(4-(4-methylpiperazin-1-yl)phenyl)-7H-pyrrolo[2,3-d]pyrimidin-4-yl)-2-((tetrahydro-2H-pyran-4-yl)oxy)benzonitrile] the same measures were 3.37 nM and 2.5 nM.
